Source: US6686382B2, “Sulfonamides and derivatives thereof that modulate the activity of endothelin” (Encysive Pharmaceuticals Inc., priority 1999, dated 2004)

How the values were obtained:
CYP3A4 = target: T1, CYP3A4 (Homo sapiens, UniProt P08684); test: Cytochrome P450 enzyme assay, CYP3A4 (Gentest Supersomes, fluorometric); type: in vitro ADME; settings: human recombinant enzyme, mean IC50; read-out: CP450 3A4 IC50
T1 construct: purchased Gentest Corporation P202
Experimental: (§1) In vitro assays to determine the concentration of the compounds provided herein required for 50% inhibition of substrate metabolism (IC50) by different human cytochrome P450 enzymes (2C9, 2C19, 3A4) were conducted using human recombinant cytochrome P450 enzyme assays, developed by Gentest Corporation. These assays contain Gentest Supersomes™ (specific human cytochrome P450 enzyme, co-expressed with P450 reductase and cytochrome b5), a NADPH regenerating system, substrate and a concentration range of the compounds provided herein. The fluorescent product was the measured end point for these assays. IC50s were calculated using a four-parameter logistic equation with the bottom fixed at 0% inhibition and the top fixed at 100% inhibition. (Values are the mean IC50±SD when n is greater than 1.)
(§2) Assays were conducted in 96-well microtiter plates using fluorometric assays developed by Gentest Corporation. The 12 wells in each row were used for one inhibition curve. Wells 1 to 8 contained serial 1:3 dilutions of the test compound. Wells 9 to 12 contained no inhibitor and wells 11 and 12 were blanks for background fluorescence (stop solution was added before the enzyme). All concentration curves were performed in duplicate. Incubations were initiated by the addition of enzyme and substrate to the pre-warmed reaction mixture. After a specific incubation period, the reaction was stopped by the addition of stop solution. Metabolite production per well was determined by measuring fluorescence using a fluorescent plate reader. Detailed experimental procedures for each enzyme are listed below. See, generally, Methodology of a high throughput method for measuring cytochrome P450 inhibition (Gentest Corporation, Technical Bulletin); Crespi, C. L.; Miller, V. P.; and Penman, B. W. (1997) Anal. Biochem. 248:188-190; and Geungerich, F. P. (1997) Adv. Pharm. 43:7-35.
A 0.2 ml/well reaction mixture containing 4 pmol CYP3A4 (P202), 1.3 mM NADP^+, 3.3 mM glucose-6-phosphate, 3.3 mM magnesium chloride 0.4 U/ml glucose-6-phosphate dehydrogenase, 0.01% pluronic F68, and 50 μM resorufin benzyl ether in 200 mM potassium phosphate (pH 7.4), was incubated at 37° C. for 30 minutes. Ketoconazole, a standard inhibitor of 3A4, was serially diluted from the highest concentration of 5 μM and acted as a positive control. […] After incubation, the reaction was stopped by the addition of 75 μl stop solution (80% acetonitrile/20% 0.5 M Tris base) and fluorescence/well was measured within 1 hour using a Spectra Fluor (Tecan) fluorescent plate reader. […]
(§3) The “% inhibition” was calculated as follows: [formula]
(§4) Concentration versus % inhibition curves were constructed in Prism (GraphPad, Inc.). The data was analyzed using “Top & Bottom Fixed” routine. […]

CYP2C9 = target: T2, CYP2C9 (Homo sapiens, UniProt P11712); test: Cytochrome P450 enzyme assay, CYP2C9 (Gentest Supersomes, fluorometric); type: in vitro ADME; settings: human recombinant enzyme, mean IC50; read-out: CP450 2C9 IC50
T2 construct: purchased Gentest Corporation P258
Experimental: as §1, §2
A 0.2 ml/well reaction mixture containing 2 pmol CYP2C9 (P258), 1.3 mM NADP^+, 3.3 mM glucose-6-phosphate, 3.3 mM magnesium chloride, 0.4 U/ml glucose-6-phosphate dehydrogenase and 75 μM 7-methoxy-4-trifluoromethylcoumarin in […] (pH 7.4), was incubated at 37° C. for 45 minutes. Sulfaphenazole, a standard inhibitor of CYP2C9, was serially diluted from the highest concentration of 10 μM and acted as a positive control. […] After incubation, the reaction was stopped by the addition of 75 μl stop solution (80% acetonitrile/20% 0.5 M Tris base) and fluorescence/well was measured using a Spectra Fluor (Tecan) or Cytoflour 2350 (Millipore) fluorescent plate reader. […]
as §3, §4

CYP2C19 = target: T3, CYP2C19 (Homo sapiens, UniProt P33261); test: Cytochrome P450 enzyme assay, CYP2C19 (Gentest Supersomes, fluorometric); type: in vitro ADME; settings: human recombinant enzyme, mean IC50; read-out: CP450 2C19 IC50
T3 construct: purchased Gentest Corporation P259
Experimental: as §1, §2
A 0.2 ml/well reaction mixture containing 1 pmol CYP2C19 (P259), 1.3 mM NADP^+, 3.3 mM glucose-6-phosphate, 3.3 mM magnesium chloride, 0.4 U/ml glucose-6-phosphate dehydrogenase and 25 μM 3-cyano-7-ethoxycoumarin in 50 mM potassium phosphate (pH 7.4), was incubated at 37° C. for 45 minutes. Tranylcypromine, a standard inhibitor of CYP2C19, was serially diluted from the highest concentration of 500 μM and acted as a positive control. The test compound was serially diluted from the highest concentration of 100 μM. After incubation, the reaction was stopped by the addition of 75 μl stop solution (80% acetonitrile/20% 0.5 M Tris base) and fluorescence/well was read within 1 hour using a Spectra Fluor (Tecan) fluorescent plate reader. […]
as §3, §4

[1] = Pharmacokinetic properties (oral availability, elimination half-life, Cmax); type: in vivo; settings: for half-life: blood, read-out: t½ elim. (converted)
Description: As used herein, bioavailability or oral availability refers to the rate and extent of absorption. Methods for determining bioavailability or oral availability are well known to those of skill in the art. For example, bioavailability or oral availability of any of the compounds described herein can be determined empirically by administration of the compound to an animal, followed by taking blood samples over time and measuring the blood concentration of the compound. In vivo half life (t1/2) is defined as the time it takes for the concentration of the compound in the blood to be reduced by one-half. Estimations of the area under the curve for intravenous administration can be used to estimate the area under the curve for oral administration, yielding bioavailability data. See, e.g., Milo Gibal (1991) Biopharmaceutics and Pharmacology, 4th edition (Lea and Sediger).

T1 sequence (P08684 2-503 limits assumed): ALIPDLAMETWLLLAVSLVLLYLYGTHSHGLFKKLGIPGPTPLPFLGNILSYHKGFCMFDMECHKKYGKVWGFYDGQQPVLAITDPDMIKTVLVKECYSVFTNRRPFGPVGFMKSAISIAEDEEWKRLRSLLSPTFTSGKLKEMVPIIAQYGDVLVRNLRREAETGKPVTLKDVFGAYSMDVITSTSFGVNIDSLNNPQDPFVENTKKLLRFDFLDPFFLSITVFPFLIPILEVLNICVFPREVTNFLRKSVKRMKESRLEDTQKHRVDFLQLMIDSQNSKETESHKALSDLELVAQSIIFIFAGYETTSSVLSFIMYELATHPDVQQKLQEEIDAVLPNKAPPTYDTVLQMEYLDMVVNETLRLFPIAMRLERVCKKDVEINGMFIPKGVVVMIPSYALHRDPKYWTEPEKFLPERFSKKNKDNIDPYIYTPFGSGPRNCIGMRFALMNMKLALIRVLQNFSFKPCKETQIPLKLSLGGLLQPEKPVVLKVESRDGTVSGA
T2 sequence (P11712 whole entry): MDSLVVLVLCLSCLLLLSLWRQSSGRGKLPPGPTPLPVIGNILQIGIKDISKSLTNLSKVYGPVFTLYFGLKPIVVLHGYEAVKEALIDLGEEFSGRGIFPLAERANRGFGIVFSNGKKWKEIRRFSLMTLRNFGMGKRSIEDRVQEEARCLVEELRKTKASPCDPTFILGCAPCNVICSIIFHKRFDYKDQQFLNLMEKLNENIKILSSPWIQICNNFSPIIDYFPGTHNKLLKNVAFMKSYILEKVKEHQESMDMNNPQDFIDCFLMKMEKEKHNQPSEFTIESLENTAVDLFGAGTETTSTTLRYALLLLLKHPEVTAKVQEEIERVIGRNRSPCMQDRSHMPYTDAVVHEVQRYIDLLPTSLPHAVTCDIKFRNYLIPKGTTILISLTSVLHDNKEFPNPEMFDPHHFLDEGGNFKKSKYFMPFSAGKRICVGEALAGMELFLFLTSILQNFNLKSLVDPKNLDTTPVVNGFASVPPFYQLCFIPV
T3 sequence (P33261 whole entry): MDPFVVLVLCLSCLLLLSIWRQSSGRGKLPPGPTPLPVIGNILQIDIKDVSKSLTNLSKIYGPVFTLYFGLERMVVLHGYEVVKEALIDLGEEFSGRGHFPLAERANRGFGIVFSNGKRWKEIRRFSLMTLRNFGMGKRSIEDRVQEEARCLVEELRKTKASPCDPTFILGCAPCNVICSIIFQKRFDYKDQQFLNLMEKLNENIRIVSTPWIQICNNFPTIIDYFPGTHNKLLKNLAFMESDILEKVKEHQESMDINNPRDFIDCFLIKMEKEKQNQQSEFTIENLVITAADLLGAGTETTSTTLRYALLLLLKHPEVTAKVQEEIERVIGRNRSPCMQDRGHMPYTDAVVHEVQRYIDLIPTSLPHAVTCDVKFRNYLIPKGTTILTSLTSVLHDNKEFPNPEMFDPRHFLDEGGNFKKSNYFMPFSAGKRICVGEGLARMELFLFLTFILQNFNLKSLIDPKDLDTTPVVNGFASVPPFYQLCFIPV

Structure (SMILES) | IC50 (CYP3A4) [µM] | IC50 (CYP2C9) [µM] | IC50 (CYP2C19) [µM] | half-life [1] [h] | Cmax ([1]; in vivo) [µg/mL] | Oral Availability ([1]; in vivo) [%] | melting point [°C] | t½ elim. ([1]; in vivo) [h]
CC(=O)c1cc(C)cc(C)c1NC(=O)c1sccc1S(=O)(=O)Nc1onc(C)c1C [Compound 7, N-(2-acetyl-4,6-dimethylphenyl)-3-{[(3,4 dimethyl-5-isoxazolyl)amino]sulfonyl}-2-thiophenecarboxamide] | 28 | 7.6 | 126 | 6 | 157 | 148.1 |  | 
Cc1cc(C)c(NC(=O)c2sccc2S(=O)(=O)Nc2onc(C)c2Cl)c(Cl)c1 [Compound 34, N-(2-chloro-4,6-dimethylphenyl)-3-{[(4-chloro-3-methyl-5-isoxazolyl)amino]sulfonyl}2-thiophenecarboxamide] | 3.86 | 0.56 | 4.6 | 2.6 | 49.5 |  | 174 to 176 | 
Cc1cc(C)c(NC(=O)c2sccc2S(=O)(=O)Nc2onc(C)c2Cl)c(S(C)(=O)=O)c1 [Compound 42, 3-{[(4-chloro-3-methyl-5-isoxazolyl)amino]sulfonyl)-N-[2,4-dimethyl-6-(methylsulfonyl)phenyl]-2-thiophenecarboxamide] | 13.7 | 5.3 | 6.2 | 1.5 | 10.3 |  | 208 to 210 | 
Cc1cc2c(cc1CC(=O)c1sccc1S(=O)(=O)Nc1onc(C)c1Cl)OCO2 [N-(4-chloro-3-methyl-5-isoxazolyl)-2-{[3,4-(methylenedioxy)-6-methylphenyl)acetyl]-thiophene-3-sulfonamide, reference compound] | 0.09 | 0.03 | 0.2 |  | 133 | 43.6 |  | 4.5
